# Test results as given in patent US20170349860A1, “ENZYME STABILIZERS” (Henkel AG & Co. KGaA, priority 2014, published 2017).
# Test system: protease
# Experiment: Storage stability of protease in detergent formulation: residual proteolytic activity by AAPF-pNA assay
# Format: biochemical
# Details: 1% protease, 1% (w/w) candidate compound in detergent formulation; stored 8 weeks at 30° C.; AAPF-pNA substrate, 25° C., pH 8.6, 410 nm
# Protocol: The storage stability of protease-containing detergents and cleaning agents was tested for use as enzyme stabilizers in the presence of candidate compounds. For this purpose, the candidate compounds were formulated in the presence of up to 1% (w/w) 1,2-propanediol in a detergent or cleaning agent formulation (see Table 2). The protease (1% PUR) was then added to the formulation, and the formulation stored for 8 weeks at 30° C.
# In parallel batches, the proteolytic activity of 1% protease was determined in 4% PG (1,2-propanediol), 85% matrix (see Table 1), then, each following incubation with 1% of the candidate compound (specified in w/w; QS 100% with water) determined in half of the batches in the formulation as indicated in Table 1 by the release of the chromophore para-nitroaniline from the succinyl-alanine-alanine-proline-phenylalanine para-nitroanilide substrate (AAPF-pNA; Bachem L-1400). The release of the pNA caused an increase in the absorbance at 410 nm, the progress over time of which is a measure of enzymatic activity. […]
# For evaluation, the initial values for the proteolytic activity of the agent in question were compared to the values determined after storage. […] The stabilizing effect of each tested compound is thus measured as a relative percentage increase in the residual protease activity.
smiles,measurement,value
"O=C(O)CCCCCNc1nc(NCCCCCC(=O)O)nc(NCCCCCC(=O)O)n1 [2,4,6-Tri-(6-aminocaproic acid)-1,3,5-triazine]",Relative residual activity after incubation with KV,136%
